ChEMBL document CHEMBL1137804, “Natural product-based anti-HIV drug discovery and development facilitated by the NCI developmental therapeutics program” (J Nat Prod, 2001)
≈ marks a conversion by molar mass, not a printed value.

How the values were obtained:
[1] = test system: Human immunodeficiency virus 1; experiment: Antiviral activity against HIV1 Rojo in human CEM cells; type: functional, organism-based; conditions: Human immunodeficiency virus 1, Rojo, CCRF-CEM
[2] = test system: Human immunodeficiency virus 1; experiment: Antiviral activity against HIV1 RF in human CEM cells; type: functional, organism-based; conditions: Human immunodeficiency virus 1, RF, CCRF-CEM
[3] = test system: Human immunodeficiency virus 1; experiment: Antiviral activity against HIV1 RF in human H9 cells assessed as inhibition of virus-induced cytopathic effect by formazan-based conventional colorimetric technique; type: functional, organism-based; conditions: Human immunodeficiency virus 1, RF
[4] = molecular target: Human immunodeficiency virus type 1 reverse transcriptase (Human immunodeficiency virus 1, UniProt Q72547); experiment: Inhibition of HIV1 reverse transcriptase
[5] = test system: Human immunodeficiency virus 1; experiment: Antiviral activity against HIV1 RF in human CEM-SS cells assessed as inhibition of virus-induced cytopathic effect; type: functional, organism-based; conditions: Human immunodeficiency virus 1, RF
[6] = Therapeutic index, ratio of cytotoxicity against human CEM-SS cells to EC50 for HIV1 RF; type: cell-based; conditions: read-out: TI
[7] = test system: Human immunodeficiency virus 1; experiment: Antiviral activity against azidothymidine-resistant HIV1 G9106; type: functional, organism-based; conditions: Human immunodeficiency virus 1, G9106
[8] = test system: Human immunodeficiency virus 1; experiment: Antiviral activity against pyridinone-resistant HIV1 A17; type: functional, organism-based; conditions: Human immunodeficiency virus 1, A17
[9] = Therapeutic index, ratio of cytotoxicity against human H9 cells to EC50 for HIV1 RF; type: cell-based; conditions: read-out: TI
[10] = Therapeutic index, ratio of cytotoxicity against human H9 cells to EC50 for HIV1 3B; type: cell-based; conditions: read-out: TI
[11] = test system: Human immunodeficiency virus 1; experiment: Antiviral activity against HIV1 3B in human H9 cells assessed as inhibition of virus-induced cytopathic effect by formazan-based conventional colorimetric technique; type: functional, organism-based; conditions: Human immunodeficiency virus 1, 3B
[12] = Therapeutic index, ratio of cytotoxicity against human MT2 cells to EC50 for HIV1 LAI; type: cell-based; conditions: read-out: TI
[13] = molecular target: Human immunodeficiency virus type 1 integrase (Human immunodeficiency virus 1, UniProt Q7ZJM1); experiment: Inhibition of HIV1 integrase-catalyzed disintegration activity
Human immunodeficiency virus type 1 integrase, sequence (Q7ZJM1 whole entry): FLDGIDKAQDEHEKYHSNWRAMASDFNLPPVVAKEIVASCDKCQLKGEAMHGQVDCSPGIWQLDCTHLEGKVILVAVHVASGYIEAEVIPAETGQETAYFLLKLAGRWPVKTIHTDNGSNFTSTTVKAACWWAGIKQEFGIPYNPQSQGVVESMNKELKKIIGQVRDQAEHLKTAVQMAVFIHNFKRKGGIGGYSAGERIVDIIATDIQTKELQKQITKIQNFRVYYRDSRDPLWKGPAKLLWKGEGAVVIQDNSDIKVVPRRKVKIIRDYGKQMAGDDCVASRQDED

[14] = test system: Human immunodeficiency virus 1; experiment: Antiviral activity against HIV1 LAI in human MT2 cells assessed as virus-induced cytopathic effect after 72 hrs; type: functional; conditions: Human immunodeficiency virus 1, LAI, MT2, 72 h; read-out: ED50 (the source's name)
[15] = test system: Human immunodeficiency virus 2; experiment: Antiviral activity against HIV2; type: functional, organism-based
[16] = test system: Human immunodeficiency virus 1; experiment: Antiviral activity against HIV1 in human CEM-SS cells assessed as inhibition of virus-induced cytopathic effect; type: functional, organism-based; conditions: Human immunodeficiency virus 1, CEM-SS
[17] = Therapeutic index, ratio of cytotoxicity against human MT2 cells to EC50 for HIV1 RF; type: cell-based; conditions: read-out: TI
[18] = test system: Human immunodeficiency virus 1; experiment: Antiviral activity against HIV1 RF in human MT2 cells assessed as virus-induced cytopathic effect after 72 hrs; type: functional; conditions: Human immunodeficiency virus 1, RF, MT2, 72 h; read-out: ED50 (the source's name)
H9 = experiment: Cytotoxicity against human H9 cells; type: cell-based

Structure (SMILES): CC(C)CC(=O)N[C@H](C(=O)N[C@H](C(=O)N[C@@H](CC(C)C)[C@@H](O)CC(=O)N[C@@H](C)C(=O)N[C@@H](CC(C)C)[C@@H](O)CC(=O)O)C(C)C)C(C)C [PEPSTATIN]
- EC50 [1]: 150000 nM
- EC50 [2]: 69000 nM
- EC50 [3]: 51800 nM

Structure (SMILES): O=C(O[C@@H]1C[C@](OC(=O)c2cc(O)c(O)c(O)c2)(C(=O)O)C[C@@H](OC(=O)c2cc(O)c(O)c(O)c2)[C@H]1OC(=O)c1cc(O)c(O)c(O)c1)c1cc(O)c(O)c(O)c1
- IC50 [4]: 800 nM
- EC50 [5]: 500 nM
- selectivity ratio [6]: 20

Structure (SMILES): CCCc1cc(=O)oc2c3c(c4c(c12)OC(C)(C)C=C4)O[C@H](C)[C@@H](C)[C@@H]3O [CALANOLIDE A]
- EC50 [7]: ≤ 30 nM
- EC50 [8]: ≤ 600 nM
- EC50 [5]: 200 nM
- selectivity ratio [6]: 103

Structure (SMILES): O=c1[nH]cnc2c1ncn2[C@H]1CC[C@@H](CO)O1 [DIDANOSINE]
- selectivity ratio [9]: 1760
- selectivity ratio [10]: 1760

Structure (SMILES): CCCc1cc(=O)oc2c3c(c4c(c12)OC(C)(C)CC4)O[C@@H](C)[C@H](C)[C@@H]3O [7,8-DIHYDROCALANOLIDE B]
- EC50 [5]: 100 nM
- selectivity ratio [6]: 99.8

Structure (SMILES): CC(C)=CCOc1c(CC=C(C)C)c(O)nc2ccccc12
- EC50 [5]: 1640 nM
- selectivity ratio [6]: 17

Structure (SMILES): Nc1ccn([C@@H]2CS[C@H](CO)O2)c(=O)n1 [LAMIVUDINE]
- EC50 [11]: 60 nM
- EC50 [3]: 60 nM

Structure (SMILES): Nc1ccn([C@H]2CC[C@@H](CO)O2)c(=O)n1 [ZALCITABINE]
- selectivity ratio [9]: 200
- EC50 [11]: 1 nM
- EC50 [3]: 1 nM
- selectivity ratio [10]: 200

Structure (SMILES): COC(=O)C(=O)O[C@]1(C(=O)O)C[C@@H](OC(=O)/C=C/c2ccc(O)c(O)c2)[C@H](O)[C@H](OC(=O)/C=C/c2ccc(O)c(O)c2)C1
- selectivity ratio [12]: 87
- IC50 [13]: 946 nM
- EC50 [14]: 4 µg/mL (≈ 6.64 µM)

Structure (SMILES): CCCc1cc(=O)oc2c3c(c4c(c12)OC(C)(C)C=C4)O[C@@H](C)[C@H](C)[C@@H]3O [COSTATOLIDE]
- EC50 [5]: 200 nM
- selectivity ratio [6]: > 20

Structure (SMILES): CSC[C@H](NC(=O)COc1cccc2cnccc12)C(=O)N[C@@H](Cc1ccccc1)[C@H](O)C(=O)N1CSC(C)(C)[C@H]1C(=O)NC(C)(C)C
- EC50 [15]: 20 nM

Structure (SMILES): Cc1cn([C@H]2C=C[C@@H](CO)O2)c(=O)[nH]c1=O [STAVUDINE]
- EC50 [11]: 60 nM
- EC50 [3]: 60 nM

Structure (SMILES): C=CC(C)(CC/C=C(\C)CCC=C(C)C)c1cc(O)c(O)c(-c2cc(C(C)(C=C)CC/C=C(\C)CCC=C(C)C)cc(O)c2O)c1 (centres undefined) [PELTATOL A]
- EC50 [16]: 8000 nM

Structure (SMILES): CC(=O)O[C@@]12C[C@@H](C)[C@@]3(O)[C@@H](C=C(CO)C[C@]4(O)C(=O)C(C)=C[C@@H]34)[C@@H]1C2(C)C [PROSTRATIN]
- EC50 [16]: ≤ 132 nM

Structure (SMILES): Cc1cn([C@H]2C[C@H](N=[N+]=[N-])[C@@H](CO)O2)c(=O)[nH]c1=O [ZIDOVUDINE]
- selectivity ratio [9]: > 1000
- EC50 [11]: 1 nM
- EC50 [3]: 1 nM
- selectivity ratio [10]: > 1000

Structure (SMILES): COc1cc(C)cc2c(-c3c(O)cc(O)c4c3C[C@@H](C)N[C@@H]4C)cc(-c3cc(-c4c(O)cc(O)c5c4C[C@@H](C)N[C@@H]5C)c4cc(C)cc(OC)c4c3O)c(O)c12 [MICHELLAMINE A]
- EC50 [16]: 1000 nM

Structure (SMILES): CSC[C@H](NC(=O)COc1cccc2cnccc12)C(=O)N[C@@H](Cc1ccccc1)[C@H](O)C(=O)N1CSC[C@H]1C(=O)NC(C)(C)C
- selectivity ratio [9]: > 4.6
- EC50 [3]: 20 nM

Structure (SMILES): CN1CCCCC1c1c(O)cc(O)c2c(=O)cc(-c3ccccc3)oc12 (centres undefined)
- EC50 [5]: 260 nM
- selectivity ratio [6]: 3

Structure (SMILES): COc1cc2c[n+](C)c3c4cc5c(cc4ccc3c2cc1OC)OCO5 [NITIDINE CHLORIDE]
- EC50 [5]: 14000 nM
- selectivity ratio [6]: 3

Structure (SMILES): O=C(/C=C/c1ccc(O)c(O)c1)O[C@@H]1C[C@](O)(C(=O)O)C[C@@H](OC(=O)/C=C/c2ccc(O)c(O)c2)[C@H]1O
- selectivity ratio [12]: 150
- IC50 [13]: 1280 nM
- EC50 [14]: 1 µg/mL (≈ 1.94 µM)

Structure (SMILES): Cc1cc(O)c(C=O)c2c1C(=O)Oc1c(COC(=O)/C=C/C(=O)O)c(O)c(C(=O)O)c(C)c1O2 [FUMARPROTOCETRARIC ACID]
- selectivity ratio [17]: > 4.61
- EC50 [18]: 8400 nM

Structure (SMILES): Nc1ncnc2c1ncn2[C@@H]1O[C@H](CO)C[C@@H]1F [LODENOSINE]
- selectivity ratio [9]: > 17
- EC50 [11]: 1160 nM
- EC50 [3]: 1160 nM
- selectivity ratio [10]: > 17

Structure (SMILES): CC(C)=CCC[C@]1(C)C=Cc2c(ccc3c2C(=O)C(O)=C(C2=C(C4=C(O)C(=O)c5c(ccc6c5C=C[C@@](C)(CCC=C(C)C)O6)C4=O)C(=O)c4c(ccc5c4C=C[C@@](C)(CCC=C(C)C)O5)C2=O)C3=O)O1 [CONOCURVONE]
- EC50 [16]: 20 nM

Structure (SMILES): C=CC(C)(C)C1(CC=C(C)C)C(=O)Nc2ccccc2C1=O (centres undefined) [BUCHAPINE]
- IC50 [4]: 10000 nM
- EC50 [5]: 940 nM
- selectivity ratio [6]: 31

Structure (SMILES): CO[C@@H]1C[C@@H](C[C@H]2CC[C@H](C)[C@H]([C@@H](C)C(=O)O)O2)O[C@]2(O[C@](C)([C@H]3CC[C@@](C)([C@@H]4O[C@@H]([C@H]5O[C@@](O)(CO)[C@H](C)C[C@@H]5C)C[C@@H]4C)O3)C[C@H]2C)[C@@H]1C [NIGERICIN]
- IC50 (H9): 140 nM
- EC50 [3]: 6 nM

Structure (SMILES): C=C1C(=O)[C@]23C[C@H]1CC[C@H]2[C@]1(C)CCC[C@@](C)(C(=O)O)[C@H]1C[C@@H]3OC(C)=O [XYLOPINIC ACID]
- EC50 [16]: ≤ 900 nM
